Source: US20230332237A1, “Molecular Biomarkers for Predicting Patient Response to Steroid Therapy” (Florida State University Research Foundation, Inc., priority 2022, published 2023)

Experiments:
[1] = system: steroid resistant keloid fibroblasts; assay: RNA-seq differential gene expression in steroid resistant keloid fibroblasts following TA treatment; assay type: cell-based, human; details: 10 μM TA for 96 hrs vs DMSO, Padj≤0.05
Description: (§1) Culture of keloid-derived primary fibroblasts. Surgically excised keloid and normal skin explants were obtained from patients under Florida State University institutional review board guidelines (Approved by the Human Subjects Committee (HSC) of the Florida State University Institutional Review Board; HSC numbers: 2016.19175 and 2017.22173). The explants were cut into small pieces, digested with trypsin, and washed with and cultured in Dulbecco's Modified Eagle Medium containing 10% fetal bovine serum and antibiotic/antimycotic solution maintained at 37.8° C. (98.68° F.) and 5% carbon dioxide. Outgrowth of only primary dermal fibroblasts occurred under our culture conditions, and these were recovered by trypsinization for use in experiments at low passage. The keloid fibroblasts are morphologically identical to commercially obtained normal primary human dermal fibroblasts (HDF; Cell Applications, Inc., San Diego, CA) used as our normal controls. […]
(§2) RNA extraction. […] The quality and quantity of each RNA sample was measured by Tapestation (Agilent). […]
(§3) RNA-seq. […] The RNA-seq libraries were sequenced on a NovaSeq 6000 sequencer (Illumina) to obtain 2×100 or 2×150-base reads. […] FASTQC was used to filter out reads of low to moderate quality. Paired-end reads were mapped to the GRCh38 reference genome using Salmon (28). The average mapped reads were 323M reads per sample and average mapped rate was 94.8%. […]

[2] = system: steroid sensitive keloid fibroblasts; assay: RNA-seq differential gene expression in steroid sensitive keloid fibroblasts following TA treatment; assay type: cell-based, human; details: 10 μM TA for 96 hrs vs DMSO, Padj≤0.05
Description: as §1, §2, §3

IGFBP2 = details: treatment with prednisolone; literature refs 23, 24; cited from earlier work
IGFBP1 = details: treatment with prednisolone; literature refs 23, 24; cited from earlier work
IGF1 = details: treatment with prednisolone; literature refs 23, 24; cited from earlier work

| Structure (SMILES) | genes downregulated after TA treatment [1] | genes upregulated after TA treatment [1] | genes downregulated after TA treatment [2] | genes upregulated after TA treatment [2] | IGFBP2 (IGFBP2) | IGFBP1 (IGFBP1) | serum IGF1 concentration (IGF1) |
| --- | --- | --- | --- | --- | --- | --- | --- |
| CC1(C)O[C@@H]2C[C@H]3[C@@H]4CCC5=CC(=O)C=C[C@]5(C)[C@@]4(F)[C@@H](O)C[C@]3(C)[C@]2(C(=O)CO)O1 [TA, Triamcinolone Acetonide] | 106 | 131 | 521 | 526 | – | – | – |
| C[C@]12C=CC(=O)C=C1CC[C@@H]1[C@@H]2[C@@H](O)C[C@@]2(C)[C@H]1CC[C@]2(O)C(=O)CO [prednisolone] | – | – | – | – | reduces | reduces | increases |
